Measured values as given in patent publication US11066414B2, “Cot modulators and methods of use thereof” (Gilead Sciences, Inc., priority 2015, dated 2021).
pEC50, pIC50: −log10 of the molar value. Read-outs that look alike come from different tables or passages of the source.

Assays:
[1] = test system: TNFα; assay: Cot Monocyte TNFα Cell Based Assay
[2] = molecular target: Human Cot (Homo sapiens (Human), UniProt P41279); assay: High Throughput Cot Biochemical Assay
[3] = Homo sapiens, Monocyte, read-out: EC50 TNF, LPS-stimulated human monocytes, TNFα
[4] = IC50 HTRF, Cot HTRF (TR-FRET) biochemical assay
[5] = Homo sapiens, Monocyte, read-out: EC50 TNF, LPS-stimulated human monocytes, TNFα TR-FRET
[6] = IC50 HTRF, Cot HTRF (TR-FRET KinEASE) biochemical assay, 400 μM ATP
[7] = read-out: EC50 TNF, LPS-stimulated human monocytes, TNFα
[8] = read-out: IC50 HTRF, Cot HTRF (TR-FRET) biochemical assay

Sequence of Human Cot (P41279 30-397): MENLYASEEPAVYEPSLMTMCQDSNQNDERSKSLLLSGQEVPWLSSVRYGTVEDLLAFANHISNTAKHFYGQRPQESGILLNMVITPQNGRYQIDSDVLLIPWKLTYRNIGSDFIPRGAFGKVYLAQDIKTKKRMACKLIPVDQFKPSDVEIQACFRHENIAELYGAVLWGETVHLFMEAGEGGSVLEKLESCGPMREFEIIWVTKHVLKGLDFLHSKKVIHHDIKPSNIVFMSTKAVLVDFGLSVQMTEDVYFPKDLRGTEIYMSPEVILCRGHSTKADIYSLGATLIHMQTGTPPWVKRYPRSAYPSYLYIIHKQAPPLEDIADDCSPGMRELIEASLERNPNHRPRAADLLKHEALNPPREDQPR

Row | Compound | pEC50 [1, 3] | pIC50 [2, 4] | further results
1 | CC(C)(C)CNc1c(C#N)cnc2c(Cl)cc(N[C@H](c3cn(C4(C(F)F)CC4)nn3)c3ccc(F)c4cnccc34)cc12 [Example 652, (S)-8-chloro-6-(((1-(1-(difluoromethyl)cyclopropyl)-1H-1,2,3-triazol-4-yl)(8-fluoroisoquinolin-5-yl)methyl)amino)-4-(neopentylamino)quinoline-3-carbonitrile] | 7.40 | 8.40 | 
2 | CC(C)(C)CNc1c(C#N)cnc2c(Cl)cc(NC(c3cn(C4CC4)nn3)c3csc4c3CCN(C3COC3)C4)cc12 (centres unmarked) [Example 91, 8-chloro-6-(((1-cyclopropyl-1H-1,2,3-triazol-4-yl)(6-(oxetan-3-yl)-4,5,6,7-tetrahydro-thieno[2,3-c]pyridin-3-yl)-methyl)amino)-4-(neopentylamino)-quinoline-3-carbonitrile] | 7.28 | 8.70 | 
3 | Cn1c(=O)ccc2c([C@H](Nc3cc(C#N)c4ncc(C#N)c(NCC(C)(C)C)c4c3)c3cn(C4(C(F)(F)F)CC4)nn3)cccc21 [Example 890, (S)-6-(((1-methyl-2-oxo-1,2-dihydroquinolin-5-yl)(1-(1-(trifluoromethyl)cyclopropyl)-1H-1,2,3-triazol-4-yl)methyl)amino)-4-(neopentylamino)quinoline-3,8-dicarbonitrile] |  |  | pEC50 [1, 5]: 7.17; pIC50 [2, 6]: 8.22
4 | N#CCC[C@@H](Nc1c(C#N)cnc2c(Cl)cc(N[C@@H](c3cccnc3)c3cn(C4CC4)nn3)cc12)c1ccccc1 [Example 75, 8-chloro-4-(((R)-3-cyano-1-phenylpropyl)amino)-6-(((S)-(1-cyclopropyl-1H-1,2,3-triazol-4-yl)(pyridin-3-yl)methyl)amino)quinoline-3-carbonitrile] | 7.10 | 8.70 | 
5 | [2H]C(Nc1cc(Cl)c2ncc(C#N)c(N[C@H](CCC#N)c3ccccc3)c2c1)(c1cn(C2(C(F)(F)F)CC2)nn1)c1ccc(F)nc1C (stereo partly drawn) [Example 413, 8-chloro-4-(((R)-3-cyano-1-phenyl-propyl)amino)-6-(((6-fluoro-2-methyl-pyridin-3-yl)(1-(1-(trifluoromethyl)-cyclopropyl)-1H-1,2,3-triazol-4-yl)methyl-d)amino)quinoline-3-carbonitrile] | 7.36 | 8.40 | 
6 | Cc1cncc([C@H](Nc2cc(Cl)c3ncc(C#N)c(Nc4ccc(F)c(Cl)c4)c3c2)c2cn(C3CCN(C(C)(C)C)CC3)nn2)c1 [Example 250, (S)-6-(((1-(1-(tert-butyl)piperidin-4-yl)-1H-1,2,3-triazol-4-yl)(5-methylpyridin-3-yl)methyl)amino)-8-chloro-4-((3-chloro-4-fluorophenyl)amino)quinoline-3-carbonitrile] | 6.90 | 8.30 | 
7 | CC(C)(C)CNc1c(C#N)cnc2c(Cl)cc(N[C@H](c3cn(C4(C5CC5)CC4)nn3)c3cccc4ncccc34)cc12 [Example 691, (S)-6-(((1-([1,1′-bi(cyclopropan)]-1-yl)-1H-1,2,3-triazol-4-yl)(quinolin-5-yl)methyl)amino)-8-chloro-4-(neopentylamino)quinoline-3-carbonitrile] | 7.18 | 8.22 | 
8 | [2H]C(Nc1cc(Cl)c2ncc(C#N)c(N[C@H](CC)c3ccccc3)c2c1)(c1cn(C2CC2)nn1)c1ccc(Cl)nc1C (stereo partly drawn) [Example 122, 8-chloro-6-(((6-chloro-2-methylpyridin-3-yl)(1-cyclopropyl-1H-1,2,3-triazol-4-yl)methyl-d)amino)-4-(((R)-1-phenylpropyl)amino)quinoline-3-carbonitrile] | 6.62 | 8.22 | 
9 | CC(C)(C)CNc1c(C#N)cnc2c(Cl)cc(N[C@H](c3cn(C4CC4)nn3)c3cncc4cnccc34)cc12 [Example 466, (S)-8-chloro-6-(((1-cyclopropyl-1H-1,2,3-triazol-4-yl)(2,7-naphthyridin-4-yl)methyl)amino)-4-(neopentylamino)-quinoline-3-carbonitrile] | 6.03 | 7.55 | 
10 | Cn1cnc2c([C@H](Nc3cc(Cl)c4ncc(C#N)c(NCC(C)(C)C)c4c3)c3cn(C4(C(F)(F)F)CC4)nn3)cccc21 [Example 520, (S)-8-chloro-6-(((1-methyl-1H-benzo[d]imidazol-4-yl)(1-(1-(trifluoromethyl)cyclopropyl)-1H-1,2,3-triazol-4-yl)methyl)amino)-4-(neopentylamino)quinoline-3-carbonitrile] | 6.03 | 6.91 | 
11 | CC(C)(C)CNc1c(C#N)cnc2c(Cl)cc(N[C@@H](c3ccc4nccn4c3)c3cn(C4(C(F)(F)F)CC4)nn3)cc12 [Example 935, (S)-8-chloro-6-((imidazo[1,2-a]pyridin-6-yl(1-(1-(trifluoromethyl)cyclopropyl)-1H-1,2,3-triazol-4-yl)methyl)amino)-4-(neopentylamino)quinoline-3-carbonitrile] |  |  | pEC50 [1, 5]: 6.37; pIC50 [2, 6]: 7.62
12 | COc1nccc2c([C@H](Nc3cc(Cl)c4ncc(C#N)c(NCC(C)(C)C)c4c3)c3nnn(C4(C(F)F)CC4)c3F)cccc12 [Example 923, (S)-8-chloro-6-(((1-(1-(difluoromethyl)cyclopropyl)-5-fluoro-1H-1,2,3-triazol-4-yl)(1-methoxylsoquinolin-5-yl)methyl)amino)-4-(neopentylamino)quinoline-3-carbonitrile] |  |  | pEC50 ([1]; read-out: EC50 TNF, LPS-stimulated human monocytes, TNFα TR-FRET): 6.59; pIC50 ([2]; read-out: IC50 HTRF, Cot HTRF (TR-FRET KinEASE) biochemical assay, 400 μM ATP): 7.80
13 | CC(C)(C)CNc1c(C#N)cnc2c(C#N)cc(N[C@H](c3cn(C4(C#N)CC4)nn3)c3cccc4ncccc34)cc12 [Example 577, (S)-6-(((1-(1-cyanocyclopropyl)-1H-1,2,3-triazol-4-yl)(quinolin-5-yl)methyl)amino)-4-(neopentylamino)-quinoline-3,8-dicarbonitrile] | 7.31 | 9.00 | 
14 | [2H][C@](Nc1cc(Cl)c2ncc(C#N)c(NCC(C)(C)C)c2c1)(c1ccc(F)nc1)c1cn(C2CC2)nn1 [Example 142, (S)-8-chloro-6-(((1-cyclopropyl-1H-1,2,3-triazol-4-yl)(6-fluoropyridin-3-yl)methyl-d)amino)-4-(neopentylamino)quinoline-3-carbonitrile] | 7.18 | 8.70 | 
15 | CC(C)(C)CNc1c(C#N)cnc2c(C#N)cc(N[C@H](c3cn(C4(C(F)(F)F)CC4)nn3)c3cccc4ncccc34)cc12 [Example 469, (S)-4-(neopentylamino)-6-((quinolin-5-yl(1-(1-(trifluoromethyl)-cyclopropyl)-1H-1,2,3-triazol-4-yl)methyl)amino)quinoline-3,8-dicarbonitrile] | 7.16 | 8.40 | 
16 | N#CCCC(Nc1c(C#N)cnc2c(Cl)cc(N[C@H](c3cn(C4[C@H]5CN(C6COC6)C[C@@H]45)nn3)c3csc4c3CCN(C3COC3)C4)cc12)c1ccccc1 (stereo partly drawn) [Example 82, 8-chloro-4-((3-cyano-1-phenylpropyl)amino)-6-(((S)-(1-((1R,5S,6r)-3-(oxetan-3-yl)-3-azabicyclo[3.1 0]hexan-6-yl)-1H-1,2,3-triazol-4-yl)(6-(oxetan-3-yl)-4,5,6,7-tetrahydrothieno[2,3-c]pyridin-3-yl)methyl)amino)-quinoline-3-carbonitrile] |  |  | pEC50 [1, 7]: 6.82; pIC50 [2, 8]: 8.70
17 | CC1(C)CC(n2cc([C@@H](Nc3cc(Cl)c4ncc(C#N)c(Nc5ccc(F)c(Cl)c5)c4c3)c3cccnc3)nn2)CC(C)(C)N1 [Example 309] |  |  | pEC50 [1, 7]: 6.74; pIC50 [2, 8]: 8.10
18 | Cc1ncccc1[C@H](Nc1cc(Cl)c2ncc(C#N)c(Nc3cccc(Cl)c3)c2c1)c1cn(C2CCN(C(C)(C)C)CC2)nn1 [Example 226, (S)-6-(((1-(1-(tert-butyl)piperidin-4-yl)-1H-1,2,3-triazol-4-yl)(2-methylpyridin-3-yl)methyl)amino)-8-chloro-4-((3-chlorophenyl)amino)quinoline-3-carbonitrile] | 6.06 | 8.10 | 
19 | Cc1nc(F)ccc1[C@H](Nc1cc(Cl)c2ncc(C#N)c(NCC(C)(C)C)c2c1)c1cn(C2(CO)CC2)nn1 [Example 482, (S)-8-chloro-6-(((6-fluoro-2-methylpyridin-3-yl)(1-(1-(hydroxymethyl)cyclopropyl)-1H-1,2,3-triazol-4-yl)methyl)amino)-4-(neopentylamino)quinoline-3-carbonitrile] | 7.07 | 8.52 | 
20 | Cn1nccc1[C@H](Nc1cc(C#N)c2ncc(C#N)c(NCC(C)(C)C)c2c1)c1cn(C2(C(F)(F)F)CC2)nn1 [Example 678, (S)-6-(((1-methyl-1H-pyrazol-5-yl)(1-(1-(trifluoromethyl)cyclopropyl)-1H-1,2,3-triazol-4-yl)methyl)amino)-4-(neopentylamino)quinoline-3,8-dicarbonitrile] | 6.88 | 8.30 | 
21 | Cc1nc(F)ccc1[C@H](Nc1cc(Cl)c2ncc(C#N)c(Nc3cnc(F)c(F)c3)c2c1)c1nnn(C2(C(F)F)CC2)c1F [Example 953, (S)-8-chloro-6-(((1-(1-(difluoromethyl)cyclopropyl)-5-fluoro-1H-1,2,3-triazol-4-yl)(6-fluoro-2-methylpyridin-3-yl)methyl)amino)-4-((5,6-difluoropyridin-3-yl)amino)quinoline-3-carbonitrile] |  |  | pEC50 [1, 5]: 6.45; pIC50 [2, 6]: 7.44
22 | [2H]C([2H])([2H])C([2H])([2H])C(Nc1c(C#N)cnc2c(Cl)cc(N[C@@]([2H])(c3ccc(F)nc3)c3cn(C4CC4)nn3)cc12)c1ccccc1 (stereo partly drawn) [Example 115, 8-chloro-6-(((S)-(1-cyclopropyl-1H-1,2,3-triazol-4-yl)(6-fluoropyridin-3-yl)methyl-d)amino)-4-((1-phenylpropyl-2,2,3,3,3-d5)amino)quinoline-3-carbonitrile] | 6.92 | 8.30 | 
